Data from US20250351832A1, “PHYTOCHEMICALS AS BIOPESTICIDES AND BIOSTIMULANTS” (KAY BEE BIO ORGANICS PVT. LTD., priority 2024, published 2025).
Like-named read-outs stand apart in the source and are kept apart here.

Experiments:
Alternaria alternata [1] = experiment: In vitro poisoned food technique against fungus (Ex. 20); assay type: cell-based
Alternaria alternata [2] = experiment: Alternaria leaf spot/blight on inoculated tomato plants (Ex. 28); assay type: in vivo; settings: tomato plants, Alternaria alternata; after 7 days; dose 1 ml/gm/lit
tomato seedlings = experiment: Response of tomato plants, greenhouse growth (Ex. 30); assay type: in vivo; settings: tomato seedlings, dose 1 ml/gm/lit; for Plant Height 5th Day / Stem Girth 5th Day / CCI 5th Day: 5th day after application; for Plant Height 10th Day / Stem Girth 10th Day / CCI 10th Day: 10th day after application; for Plant Height % Increase over pre on 10th Day / Stem Girth % Increase over pre on 10th Day / CCI % Increase over pre on 10th Day / Root Length (cm) 10th Day / Root Length % Increase over control: 10th day; for Root Length % Increase over control: vs water control
chili seedlings = experiment: Response of chili plants, greenhouse growth (Ex. 31); assay type: in vivo; settings: chili seedlings, dose 1 ml/gm/lit; for CCI 5th Day / Plant Height (cm) 5th Day: 5th day after application; for CCI 10th Day / Plant Height (cm) 10th Day: 10th day after application; for CCI % Increase over pre on 10th Day / Plant Height % Increase over pre on 10th Day / Root Lenght (cm) 10th Day / Stem Girth % Increase over pre on 10th Day / Root Lenght % Increase over control: 10th day; for Root Lenght % Increase over control: vs water control
Aphid [3] = settings: Dose 1 ml/gm/lit.; for Total No. of dead insect at 48 Hrs.: 10 insects/treatment, 4 replications, cotton leaves
Mite [4] = settings: Dose 1 ml/gm/lit.; for Total No. of dead insect at 48 Hrs.: 10 insects/treatment, 4 replications, okra leaves
Mealy Bug [5] = settings: Mealy Bug on cotton leaves, dose 1 ml/gm/lit., 48 Hrs.; for Total No. of dead insect at 48 Hrs.: 10 insects/treatment, 4 replications; for % Corrected Mortality at 48 Hrs.: corrected for water control
Helicoverpa armigera [6] = settings: Helicoverpa armigera on okra fruits, dose 1 ml/gm/lit., 72 Hrs.; for Total No. of dead insect at 72 Hrs.: 10 insects/treatment, 4 replications; for % Corrected Mortality at 72 Hrs.: corrected for water control
Spodoptera litura [7] = settings: Spodoptera litura on castor leaves; dose 1 ml/gm/lit.; 10 insects/treatment; 72 hrs after application
Thrips [8] = settings: Thrips on cotton leaves; dose 1 ml/gm/lit.; 10 insects/treatment; 48 hrs after application
Aphid [9] = settings: Aphids on cotton plants, green house; dose 1 ml/gm/lit.; 10 insects/plant, 10 plants/treatment; 48 hrs
Mite [10] = settings: mite on okra plants, green house, dose 1 ml/gm/lit. spray; for % Mortality at 48 Hrs. / Total No. of dead insect at 48 Hrs.: 48 hrs after application; for % Corrected Mortality at 48 Hrs.: corrected for water control
Mealy Bug [11] = settings: mealy bug on cotton plants, green house, dose 1 ml/gm/lit. spray; for % Mortality at 48 Hrs. / Total No. of dead insect at 48 Hrs.: 48 hrs after application; for % Corrected Mortality at 48 Hrs.: corrected for water control
Helicoverpa armigera [12] = settings: Helicoverpa armigera 3rd instar on chickpea plants, dose 1 ml/gm/lit. spray; for % Mortality at 72 Hrs.: 72 hrs after application; for % Corrected Mortality at 72 Hrs.: corrected for water control
Spodoptera litura [13] = settings: Spodoptera litura 3rd instar on cabbage plants, dose 1 ml/gm/lit. spray; for % Mortality at 72 Hrs.: 72 hrs after application; for % Corrected Mortality at 72 Hrs.: corrected for water control
Thrips [14] = settings: thrips on cotton plants, greenhouse, dose 1 ml/gm/lit. spray; for % Mortality at 48 Hrs. / Total No. of dead insect at 48 Hrs.: 48 hrs after application; for % Corrected Mortality at 48 Hrs.: corrected for water control
[15] = cited from earlier work; for Phytotonic Effect: Table 13, effect on plants, descriptive
Spodoptera litura [16] = experiment: whole plant or invertebrate; settings: 72 h
Thrips [17] = experiment: whole plant or invertebrate; settings: in Gossypium hirsutum, 48 h
Aphid [18] = experiment: whole plant or invertebrate; settings: 48 h
[19] = poisoned food technique, PDA medium, dose 1 ml/gm/lit., after seven days
[20] = Table 13, descriptive, no test described
[21] = read-out: % Corrected Mortality at 72 Hrs.
[22] = read-out: % Mortality at 72 Hrs.
[23] = read-out: % Corrected Mortality at 48 Hrs.
[24] = read-out: % Mortality at 48 Hrs.

## CCCCCCCCCCCCCCCC(=O)O [Palmitic acid]
Alternaria alternata [1]; […]
  inhibition of growth at 1 mL or g/L: 34.1%
Alternaria alternata [1]; [19]
  Mean colony Diameter (mm): 58.00 mm
Alternaria alternata [2]
  % Disease reduction over Control: 50.41%
Tomato seedlings
  Plant Height 5th Day: 7.14 cm
  Stem Girth 5th Day: 1.79 mm
  Plant Height 10th Day: 8.54 cm
  Stem Girth 10th Day: 2.32 mm
  Plant Height % Increase over pre on 10th Day: 41.16%
  Stem Girth % Increase over pre on 10th Day: 76.92%
  CCI 5th Day: 13.26
  CCI % Increase over pre on 10th Day: 33.42%
  Root Length (cm) 10th Day: 4.95 cm
  CCI 10th Day: 14.89
  Root Length % Increase over control: 48.91%
Chili seedlings
  CCI 5th Day: 13.04
  Plant Height (cm) 5th Day: 6.30 cm
  CCI % Increase over pre on 10th Day: 56.37%
  Plant Height % Increase over pre on 10th Day: 68.98%
  Root Lenght (cm) 10th Day: 4.41 cm
  Stem Girth % Increase over pre on 10th Day: 58.78%
  CCI 10th Day: 15.95
  Plant Height (cm) 10th Day: 7.3 cm
  Root Lenght % Increase over control: 61.00%
Aphid [3]
  Total No. of dead insect at 48 Hrs.: 6.00
Aphid [3]; 48 hrs
  % Corrected Mortality at 48 Hrs.: 54.29%
  % Mortality at 48 Hrs.: 60.00%
Mite [4]
  Total No. of dead insect at 48 Hrs.: 4.25
  % Corrected Mortality at 48 Hrs.: 37.84%
  % Mortality at 48 Hrs.: 42.50%
Mealy Bug [5]
  Total No. of dead insect at 48 Hrs.: 6.50
  % Mortality at 48 Hrs.: 65.00%
  % Corrected Mortality at 48 Hrs.: 63.16%
Helicoverpa armigera [6]
  Total No. of dead insect at 72 Hrs.: 4.50
  % Mortality at 72 Hrs.: 45.00%
  % Corrected Mortality at 72 Hrs.: 45.00%
Spodoptera litura [7]
  Total No. of dead insect at 72 Hrs.: 2.50
Thrips [8]
  Total No. of dead insect at 48 Hrs.: 4.25
Aphid [9]
  Total No. of dead insect at 48 Hrs.: 70.00
Mite [10]
  % Mortality at 48 Hrs.: 45.00%
  Total No. of dead insect at 48 Hrs.: 45.00
  % Corrected Mortality at 48 Hrs.: 42.11%
Mealy Bug [11]
  % Mortality at 48 Hrs.: 55.00%
  Total No. of dead insect at 48 Hrs.: 55.00
  % Corrected Mortality at 48 Hrs.: 50.00%
Helicoverpa armigera [12]
  % Mortality at 72 Hrs.: 40.00%
  % Corrected Mortality at 72 Hrs.: 40.00%
Spodoptera litura [13]
  % Mortality at 72 Hrs.: 27.50%
  % Corrected Mortality at 72 Hrs.: 23.68%
Thrips [14]
  % Mortality at 48 Hrs.: 40.00%
  Total No. of dead insect at 48 Hrs.: 40.00
  % Corrected Mortality at 48 Hrs.: 33.33%
[15]; [20]
  Acaricidal Activity - Mode of action: Exhibited potent acaricidal
  Antifungal Activity - Mode of action: Strongest antifungal
  Bactericidal Activity - Mode of action: Destroyed or disintegrated
  Nematicidal Activity - Mode of action: Repelling nematodes
[15]
  Phytotonic Effect: Optimize soil
Spodoptera litura [16]; [21]
  mortality at 1 mL or g/L: 21.1%
Spodoptera litura [16]; [22]
  mortality at 1 mL or g/L: 25%
Thrips [17]; [23]
  mortality at 1 mL or g/L: 34.3%
Thrips [17]; [24]
  mortality at 1 mL or g/L: 42.5%
Aphid [18]; [23]
  mortality at 1 mL or g/L: 64.7%
Aphid [18]; [24]
  mortality at 1 mL or g/L: 70%

## O=C(/C=C/C=C/c1ccc2c(c1)OCO2)N1CCCCC1 [Piperine]
Alternaria alternata [1]; [19]
  Mean colony Diameter (mm): 52.00 mm
Alternaria alternata [1]; poisoned food technique, PDA medium, dose 1 ml/gm/lit., after seven days, vs untreated control, read-out: % Inhibition of growth
  inhibition of growth at 1 mL or g/L: 40.9%
Alternaria alternata [2]
  % Disease reduction over Control: 53.72%
Tomato seedlings
  Plant Height 5th Day: 6.41 cm
  Stem Girth 5th Day: 1.80 mm
  Plant Height 10th Day: 7.02 cm
  Stem Girth 10th Day: 2.24 mm
  Plant Height % Increase over pre on 10th Day: 30.48%
  Stem Girth % Increase over pre on 10th Day: 57.52%
  CCI 5th Day: 13.89
  CCI % Increase over pre on 10th Day: 20.71%
  Root Length (cm) 10th Day: 3.93 cm
  CCI 10th Day: 14.63
  Root Length % Increase over control: 18.18%
Chili seedlings
  CCI 5th Day: 13.30
  Plant Height (cm) 5th Day: 6.30 cm
  CCI % Increase over pre on 10th Day: 38.67%
  Plant Height % Increase over pre on 10th Day: 54.78%
  Root Lenght (cm) 10th Day: 3.25 cm
  Stem Girth % Increase over pre on 10th Day: 39.49%
  CCI 10th Day: 14.2
  Plant Height (cm) 10th Day: 7.12 cm
  Root Lenght % Increase over control: 18.81%
Aphid [3]
  Total No. of dead insect at 48 Hrs.: 7.00
Aphid [3]; 48 hrs
  % Corrected Mortality at 48 Hrs.: 65.71%
Mite [4]
  Total No. of dead insect at 48 Hrs.: 6.25
  % Corrected Mortality at 48 Hrs.: 59.46%
  % Mortality at 48 Hrs.: 62.50%
Mealy Bug [5]
  Total No. of dead insect at 48 Hrs.: 5.25
  % Mortality at 48 Hrs.: 52.50%
  % Corrected Mortality at 48 Hrs.: 50.00%
Helicoverpa armigera [6]
  Total No. of dead insect at 72 Hrs.: 7.00
  % Mortality at 72 Hrs.: 70.00%
  % Corrected Mortality at 72 Hrs.: 70.00%
Spodoptera litura [7]
  Total No. of dead insect at 72 Hrs.: 7.25
Thrips [8]
  Total No. of dead insect at 48 Hrs.: 4.00
Aphid [9]
  Total No. of dead insect at 48 Hrs.: 70.00
Mite [10]
  % Mortality at 48 Hrs.: 60.00%
  Total No. of dead insect at 48 Hrs.: 60.00
  % Corrected Mortality at 48 Hrs.: 57.89%
Mealy Bug [11]
  % Mortality at 48 Hrs.: 57.50%
  Total No. of dead insect at 48 Hrs.: 57.50
  % Corrected Mortality at 48 Hrs.: 52.78%
Helicoverpa armigera [12]
  % Mortality at 72 Hrs.: 67.50%
  % Corrected Mortality at 72 Hrs.: 67.50%
Spodoptera litura [13]
  % Mortality at 72 Hrs.: 70.00%
  % Corrected Mortality at 72 Hrs.: 68.42%
Thrips [14]
  % Mortality at 48 Hrs.: 32.50%
  Total No. of dead insect at 48 Hrs.: 32.50
  % Corrected Mortality at 48 Hrs.: 25.00%
[15]; [20]
  Acaricidal Activity - Mode of action: Cause dehydration of mites
  Antifungal Activity - Mode of action: Inhibition of the fungal
[15]
  Phytotonic Effect: Boost plant
Spodoptera litura [16]; [21]
  mortality at 1 mL or g/L: 71%
Spodoptera litura [16]; [22]
  mortality at 1 mL or g/L: 72.5%
Thrips [17]; [23]
  mortality at 1 mL or g/L: 31.4%
Thrips [17]; [24]
  mortality at 1 mL or g/L: 40%
Aphid [18]; [23]
  mortality at 1 mL or g/L: 64.7%
Aphid [18]; [24]
  mortality at 1 mL or g/L: 70%
